Source: article PMC9268515, “UGT1A1 and UGT1A9 Are Responsible for Phase II Metabolism of Tectorigenin and Irigenin In Vitro” (Molecules, 2022)

Legend:
[1] = system: pooled human liver microsomes (HLMs); experiment: Glucuronidation kinetics of tectorigenin and irigenin in HLMs; assay type: in vitro ADME; details: tectorigenin glucuronidation in HLMs, metabolite M
Description: To obtain suitable incubation conditions, we first evaluated the linearity of metabolite formation at different times (10–60 min), the UDPGA concentrations (0.5–5 mM), and the microsome protein concentrations in HLMs (0.2–2 mg/mL). The final incubation medium used in the experiment contained MgCl2 (10 mM), microsomes (0.5 mg/mL), 1,4-lactone monohydrate (5 mM), alamethicin ([…]), UDPGA (1 mM), and different concentrations of tectorigenin or irigenin (1–300 μM) in Tris-HCl buffer (50 mM, pH 7.4). The mixture was incubated at 37 °C for 30 min; then, the reaction was stopped by adding ice-cold methanol. After the mixtures were centrifuged (17,000 rpm, 10 min), and the supernatant was analyzed by HPLC. Michaelis–Menten parameters (Vmax and Km) were determined on the basis of the nonlinear regression of the plot of the substrate concentration vs. rate of metabolite formation.
(§1) For both HLMs and UGTs, metabolic kinetic analysis was performed by fitting the data to the Michaelis-Menten model. The Km and Vmax of enzymes were calculated as follows:(3) V=Vmax×[S]/Km+[S], where [S] is the substrate concentration. All results were shown as the mean ± standard error (SE). Differences among different groups were compared using one-way analysis of variance. A p-value < 0.05 was considered statistically significant.

UGT1A9 = target: T1, UGT1A9 (Homo sapiens, UniProt O60656); experiment: Recombinant UGT reaction screening and enzyme kinetics, UGT1A9; assay type: in vitro ADME; details: recombinant UGT1A9 screening
T1 construct: purchased BD Biosciences (Woburn, MA, USA)
T1 sequence (O60656 26-530): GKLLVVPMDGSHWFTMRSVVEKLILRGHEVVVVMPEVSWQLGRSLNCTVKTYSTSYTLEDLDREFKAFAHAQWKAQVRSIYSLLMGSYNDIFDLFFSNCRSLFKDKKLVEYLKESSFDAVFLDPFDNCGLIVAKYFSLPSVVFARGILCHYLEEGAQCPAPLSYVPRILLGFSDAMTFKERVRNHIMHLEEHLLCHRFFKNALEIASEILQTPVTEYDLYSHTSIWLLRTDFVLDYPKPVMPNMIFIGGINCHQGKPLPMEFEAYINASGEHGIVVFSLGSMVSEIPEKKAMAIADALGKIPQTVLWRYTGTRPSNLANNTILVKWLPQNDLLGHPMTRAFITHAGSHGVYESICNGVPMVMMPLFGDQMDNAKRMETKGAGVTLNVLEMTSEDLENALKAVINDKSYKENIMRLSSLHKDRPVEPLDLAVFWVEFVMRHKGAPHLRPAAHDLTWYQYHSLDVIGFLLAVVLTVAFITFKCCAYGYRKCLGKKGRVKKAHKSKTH
Description: (§2) UGT reaction screening of tectorigenin and irigenin was conducted using nine commercially available human UGTs (UGT1A1/1A3/1A4/1A6/1A9/2B4/2B7/2B15/2B17). Furthermore, we studied the enzymatic kinetic characteristics of tectorigenin and irigenin using UGT1A1 and UGT1A9. Six concentrations of tectorigenin and irigenin (1, 3, 10, 30, 100, and 300 μM) were incubated in triplicate in order to obtain the enzyme kinetic characteristics of tectorigenin and irigenin glucuronide.
as §1

UGT1A4 = target: T2, UGT1A4 (Homo sapiens, UniProt P22310); experiment: Recombinant UGT reaction screening, UGT1A4; assay type: in vitro ADME
T2 construct: purchased BD Biosciences (Woburn, MA, USA)
T2 sequence (P22310 29-534): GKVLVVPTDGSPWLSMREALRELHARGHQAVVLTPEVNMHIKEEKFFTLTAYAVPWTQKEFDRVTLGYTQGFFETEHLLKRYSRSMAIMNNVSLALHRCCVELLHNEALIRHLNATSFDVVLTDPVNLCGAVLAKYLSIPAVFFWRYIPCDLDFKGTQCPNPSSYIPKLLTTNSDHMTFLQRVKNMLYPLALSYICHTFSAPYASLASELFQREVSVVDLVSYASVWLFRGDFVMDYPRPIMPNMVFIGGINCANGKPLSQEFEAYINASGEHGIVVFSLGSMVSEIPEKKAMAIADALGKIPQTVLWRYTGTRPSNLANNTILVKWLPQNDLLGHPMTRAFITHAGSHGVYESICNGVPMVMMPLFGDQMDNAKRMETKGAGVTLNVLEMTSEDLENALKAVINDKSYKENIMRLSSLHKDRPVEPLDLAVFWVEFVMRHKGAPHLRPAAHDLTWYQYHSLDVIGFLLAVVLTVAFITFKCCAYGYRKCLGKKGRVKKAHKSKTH
Description: as §2

UGT2B4 = target: T3, UGT2B4 (Homo sapiens, UniProt P06133); experiment: Recombinant UGT reaction screening, UGT2B4; assay type: in vitro ADME
T3 construct: purchased BD Biosciences (Woburn, MA, USA)
T3 sequence (P06133 24-528): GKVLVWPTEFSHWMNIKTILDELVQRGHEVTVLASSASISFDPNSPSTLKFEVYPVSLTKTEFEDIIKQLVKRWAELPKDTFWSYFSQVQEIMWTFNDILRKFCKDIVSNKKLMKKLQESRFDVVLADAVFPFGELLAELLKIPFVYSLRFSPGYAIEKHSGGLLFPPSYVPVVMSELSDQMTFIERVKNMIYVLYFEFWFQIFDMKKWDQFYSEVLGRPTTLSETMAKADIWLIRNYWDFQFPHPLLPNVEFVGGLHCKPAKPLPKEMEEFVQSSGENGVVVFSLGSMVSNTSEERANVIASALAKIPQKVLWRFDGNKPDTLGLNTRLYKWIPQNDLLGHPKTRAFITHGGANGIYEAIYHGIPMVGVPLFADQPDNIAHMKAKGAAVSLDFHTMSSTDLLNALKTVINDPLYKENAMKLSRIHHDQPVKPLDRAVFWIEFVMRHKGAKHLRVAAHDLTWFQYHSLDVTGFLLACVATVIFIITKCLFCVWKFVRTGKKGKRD
Description: as §2

[2] = Stability experiment under different storage conditions; assay type: physicochemical; details: autosampler 12 h at 4 °C
Description: In the stability experiment, we evaluated the stability of tectorigenin and irigenin, as well as their metabolites, under different conditions. […] Metabolites (M, M1, and M2) were stable in the inactivated metabolic system for 2 h (held constant at approximately 25 °C) and after storage for 7 days (−80 °C), as well as in the pretreated samples placed in the autosampler for 12 h at 4 °C.

Km ([1]; read-out: Km for M formation): 32.8 ± 4.79 µM
Activity in glucuronidation of tectorigenin (UGT1A9): highest activity
Activity in glucuronidation of tectorigenin (UGT1A4): some activity
Activity in glucuronidation of tectorigenin (UGT2B4): none
Stability in pretreated samples in the autosampler [2]: stable
RE and RSD values in pretreated samples in the autosampler ([2]; printed as below ±5%): < 5%
Structure (SMILES): COc1c(O)cc2occ(-c3ccc(O)cc3)c(=O)c2c1O [Tectorigenin, 5,7,4′-trihydroxyl-6-methoxyl isoflavone]
Vmax for M formation [1]: 5.87 ± 0.25 nmol/min/mg
